Measured values taken from US11319452B2, “Vapor source using solutions of precursors in tertiary amines” (President and Fellows of Harvard College, priority 2013, dated 2022).
Each block holds one molecule with its values, some of them ahead of it.

How the values were obtained:
[1] = tested on: marine organisms; conditions: cited from earlier work
[2] = tested on: chromosomes; conditions: reported in vitro; cited from earlier work
[3] = tested on: human; conditions: cited from earlier work
[4] = room temperature; cited from earlier work
[5] = Evaporation rate by isothermal thermogravimetric analysis (TGA); assay type: physicochemical
Excerpt: DLE is a non-equilibrium evaporation process, because the vapor is swept away from the surface of the liquid before it can reach the equilibrium vapor pressure. The amount of liquid vaporized is thus determined by the evaporation rate. The rate of evaporation of a material can be measured using isothermal thermogravimetric analysis (TGA). In this method, a small sample (typically about 50 milligrams) of a material is held in the pan of a microbalance while a flow of a gas, such as nitrogen, passes over the surface of the material. As vapor leaves the surface of the material, its mass decreases and the microbalance measures the mass of the remaining un-evaporated material. […] The furnace temperature was increased from 110° C. to 115° C. during the time from 160 minutes to 162 minutes, at which time the temperature had stabilized at 115° C. The many mass values measured from 162 minutes until 175 minutes form a nearly continuous thick line in FIG. 1. […]
One class of precursors widely used for ALD and CVD are metal amidinates. One example is (N,N′-di-sec-butylacetamidinato)copper(I) dimer, whose evaporation rate was also measured by the same isothermal TGA method. […]

[6] = Solubility of amidinate precursors in dry, oxygen-free trialkylamine solvent; assay type: physicochemical; conditions: for solubility: in dry
Protocol: Another important criterion for solvents is that they dissolve a sufficient amount of precursor. Useful concentrations of the solutions are typically larger than 10 weight per cent, larger than 20 weight percent in more preferred embodiments, and larger than 40 weight percent in the most preferred embodiments.
Purification to remove oxygen, moisture and di-n-hexylamine was carried out as follows: 95 g of tri-n-hexylamine was mixed with 1 g of Na and heated to 100° C. under a N2 atmosphere for 3 hours. Then the purified tri-n-hexylamine was distilled out and stored in a glove box under a purified N2 atmosphere. A nickel precursor, bis(N,N′-di-tert-butylacetamidinato)nickel(II),
[drawing 6] was dissolved in the purified dry, oxygen-free tri-n-hexylamine.

[7] = in tri-n-hexylamine and in tri-n-heptylamine

evaporation rate ([5]; 115° C., flow of nitrogen gas at one atmosphere): 0.346 mg min^−1 cm^−2
Molecule: CCCCCCN(CCCCCC)CCCCCC [tri-n-hexylamine]

solubility ([6]; oxygen-free tri-n-hexylamine and in tri-n-heptylamine): about 30 weight percent
evaporation rate ([5]; 160° C.=433 K, read from FIG. 2, neat precursor into 1 atmosphere nitrogen): about 0.8 mg cm^−2 min^−1
Molecule: bis(N,N′-di-sec-butylacetamidinato)copper(I) dimer

solubility ([6]; oxygen-free tri-n-hexylamine): 42 weight percent
Molecule: bis(N,N′-di-tert-butylacetamidinato)manganese(II)

solubility ([6]; oxygen-free tri-n-hexylamine): 22 weight percent
Molecule: bis(N,N′-di-tert-butylacetamidinato)nickel(II)

solubility (in words) [6, 7]: moderate
Molecule: bis(N,N′-di-tert-butylacetamidinato)ruthenium(II)tricarbonyl

solubility ([6]; oxygen-free tri-n-hexylamine): 8 weight percent
Molecule: bis(N,N′-diisopropylpentamidinato)manganese(II)

Further lines, the molecule ahead of its results:

Molecule: Cc1cccc2ccccc12 [1-methylnaphthalene]
toxicity to marine organisms [1]: highly toxic
chromosome damage in vitro [2]: cause damage to chromosomes
effect of repeated human exposure [3]: causes sensitization

Molecule: CCCCCCCCCCCC [Dodecane, n-dodecane]
vapor pressure [4]: around 120 mTorr

Molecule: bis(N,N′-diisopropylacetamidinato)cobalt(II)
solubility (in words) ([6]; in tri-n-hexylamine): high

Molecule: bis(N,N′-diisopropylacetamidinato)tin(II)
solubility (in words) ([6]; in tri-n-hexylamine): high

Molecule: tris(N,N′-diisopropylacetamidinato)yttrium(III)
solubility (in words) [6, 7]: high

Molecule: tris(N,N′-diisopropylformamidinato)lanthanum(III)
solubility (in words) [6, 7]: high
